This is an account of results in US6905680B2, “Methods of treating HIV infected subjects” (Genetics Institute, Inc., priority 1994, dated 2005).

In assay [1] the test system is CD28-induced IL-2 production. The following applies: cited from earlier work.
For assay [2], the system named is CD4^+ T cells. Briefly: Long term growth of CD4+ T cells with coated beads (Example 19). Format: cell-based, human. The following applies: CD4 and CD8^+ T cells. The procedure: CD28^+ T cells were divided into the CD4 and CD8^+ T cell subsets as described in Example 13. […] No cytokine or feeder cells were added to these cultures, and the cultures were maintained as described in Example 1.

Assay [3] relates to CD28^+ T cells. Kind of assay: Lymphokine production by CD28+ T cells, ELISA 24 h (Table 3). The following applies: no CHO cells. Format: cell-based, human. The procedure:
All values were assessed by using dilutions of culture supernatant that yielded read-outs within the linear portion of the standard curve. The cytokine production data is summarized below in Table 3.

The test system of assay [4] is CD4^+ T cells. Briefly: Lymphokine production by CD4+ T cells (Table 4). Format: cell-based, human. The source says:
(§1) To assess whether distinct T cell subsets might differentially respond to B7-1 or B7-2, CD28^+ T cells were divided into CD28^+CD4^+ and CD28^+CD8^+cells and into CD4^+CD45RO^+ and CD4^+CD45RA+subsets. To obtain CD28^+CD4^+ or CD28^+CD8^+ T cells, the CD28^+ T cells were subjected to a second round of negative selection using magnetic beads (Dynal) coated with CD8 or CD4 mAb as described in June et al. (1989) J. Immunol. 143:153. CD4^+CD45RO^+ and CD4^+CD45RA^+ subpopulations were isolated by subjecting CD28^+ T cells to negative selection using magnetic beads and anti-CD45RO monoclonal antibody UCHL1 or anti-CD45RA monoclonal antibody ALB11 (Immuntech). […]

The subject of assay [5] is CD8^+ T cells. Briefly: Lymphokine production by CD8+ T cells (Table 4). Format: cell-based, human.
Text: as §1

The target in assay [6] is T1, human CD28 (human, UniProt P10747 19-220).
T1 construct: whole, on cells; also called CD28 on CHO-hh (CHO-HH) cells; CD28 on Jurkat #7 cells
Kind of assay: immunofluorescence on Jurkat cells (CD28+ CTLA4-).

For the molecule `CO[C@H]1[C@@H](OC)C[C@H](C)[C@@H](OC)C2=CC(=O)C=C(NC(=O)/C(C)=C/C=C\[C@H](OC)[C@@H](OC(N)=O)/C(C)=C/[C@@H]1C)C2=O` [herbimycin A], the “effect on CD28-induced IL-2 production” value in assay [1] was “can inhibit”.

Turning to OKT3 only: beads coated with OKT3 alone, the “time to death of the cells” value in assay [2] is at most 1 week.

In assay [3], “αCD3 only: plastic immobilized anti-CD3 mAb (OKT3) alone” had a GM-CSF of 280 pg/mL, an IFN-γ of 280 pg/mL, an IL-2 of under 60 pg/mL and an IL-4 of under 20 pg/mL. The same molecule registered a TNFα in assay [3] of 380 pg/mL. In assay [4], this molecule showed a GM-CSF of 9770 pg/mL, an IFN-γ of 1270 pg/mL and an IL-2 of 93 pg/mL. In assay [5], the GM-CSF worked out at 8900 pg/mL, the IFN-γ was 1620 pg/mL and the IL-2 was found to be 133 pg/mL.

B1: human B7-2Ig fusion protein (Fc fusion)
chain: APLKIQAYFNETADLPCQFANSQNQSLSELVVFWQDQENLVLNEVYLGKEKFDSVHSKYMGRTSFDSDSWTLRLHNLQIKDKGLYQCIIHHKKPTGMIRIHQMNSELSVLANFSQPEIVPISNITENVYINLTCSSIHGYPEPKKMSVLLRTKNSTIEYDGIMQKSQDNVTELYDVSISLSVSFPDVTSNMTIFCILETDKTRLLSSPFSIELEDPQPPPDH
notes: not shown: Fc portion of human IgG1
Regarding B1, the binding result in assay [6] is “binds”.
